According to patent US8652440B2, “Methods for diagnosing diseases and evaluating treatments therefor using PET” (The Trustees of Columbia University in the City of New York, priority 2007, dated 2014):
Like-named read-outs stand apart in the source and are kept apart here.

Target: central M2 cholinergic receptors (Homo sapiens, UniProt P08172)
Details: mean of 11 subjects; for K1 (rate constant for transfer from plasma to the tissue) / VT (total distribution volume) / K2 (tissue clearance rate constant): 1TKA
Description: Synapse 49:150-156 (2003). […] Carson R E, Kiesewetter D O, Jagoda E, Der M G, Herscovitch P, Eckelman W C, Muscarinic cholinergic receptor measurements with [^18F]FP-TZTP: control and competition studies. […] J Nucl Med 40:30P (1999).
Step 1: To calculate group mean parameter values that can be used for computer simulation analysis, ROI TACs were fitted by one-tissue kinetic analysis “1TKA” using individual metabolite-corrected plasma input functions. The mean 1TKA parameter values from 11 subjects were then used to generate noise-free TAC data as described below in Step 3.
Step 2: ROI TAC percent noise was calculated based on deviations from 1TKA fitting (100×SD/mean) for the latter portion of the TAC (60 to 120 min) and the mean percent noise over these 11 subjects was calculated (Table 2).

Sequence of central M2 cholinergic receptors (P08172 whole entry): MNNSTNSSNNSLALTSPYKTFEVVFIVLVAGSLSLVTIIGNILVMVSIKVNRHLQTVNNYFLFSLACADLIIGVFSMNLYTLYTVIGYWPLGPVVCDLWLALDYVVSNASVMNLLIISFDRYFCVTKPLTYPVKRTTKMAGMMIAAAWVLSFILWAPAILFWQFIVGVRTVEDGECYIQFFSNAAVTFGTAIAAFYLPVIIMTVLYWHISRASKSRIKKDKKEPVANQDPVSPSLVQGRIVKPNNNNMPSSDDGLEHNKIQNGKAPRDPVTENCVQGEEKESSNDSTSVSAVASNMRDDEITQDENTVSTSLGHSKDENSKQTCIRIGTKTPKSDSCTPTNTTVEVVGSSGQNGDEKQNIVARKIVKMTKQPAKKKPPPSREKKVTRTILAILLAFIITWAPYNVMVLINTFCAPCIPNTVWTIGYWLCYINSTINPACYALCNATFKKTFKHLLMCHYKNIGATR

CN1CCC=C(c2nsnc2SCCC[18F])C1 [[^18F]FP-TZTP, 3-(3-(3-[18F]Fluropropyl)thio-1,2,5-thiadiazol-4-yl)-1,2,5,6 tetrahydro-1-methylpyridine]
K1 (rate constant for transfer from plasma to the tissue) (cerebellum (input region, K'1)): 0.466 mL/min/cm^3 | VT (total distribution volume) (cerebellum (input region, V'T)): 43 mL/cm^3 | K2 (tissue clearance rate constant) (cerebellum (input region, k'2)): 0.0110 min⁻¹ | k2/k′2 (thalamus k2 relative to cerebellum k′2): 1.60 | K1 (rate constant for transfer from plasma to the tissue) (thalamus): 0.506 mL/min/cm^3 | K2 (tissue clearance rate constant) (thalamus): 0.0176 min⁻¹ | VT (total distribution volume) (thalamus): 29 mL/cm^3
